# Data from patent US12570657B2, “Mesylate salts of heterocyclic cytokinins, compositions containing these derivatives and use thereof” (UNIVERZITA PALACKEHO V OLOMOUCI, priority 2020, dated 2026).
# pIC50: −log10 of the molar value. Where two headings read alike, the source gives them in different places.
# Columns and labels:
# [1] = system: winter wheat leaf segments; assay: Senescence bioassay: retention of chlorophyll in excised winter wheat leaf tips; assay type: in vivo, Triticum aestivum cv. Hereward; details: for activity (%) [10^−4 mol · l^−1 BAP = 100%]: chlorophyll retention at concentration with highest activity, 10^−4 M BAP = 100%
# Description: Seeds of winter wheat, Triticum aestivum cv. Hereward, were washed under running water for 24 hours and then sown on vermiculite soaked with Knop's solution. They were placed in a growth chamber at 25° C. with a 16/8 h light/dark period at 50 μmol·m^−2·s^−1. After 7 days, the first leaf was fully developed and the second leaf had started to grow. A tip section of the first leaf, approximately 35 mm long, was removed from 5 seedlings and trimmed slightly to a combined weight of 100 mg. The basal ends of the five leaf tips were placed in the wells of a microtiter polystyrene plate containing 150 μl of each tested compound solution. The entire plate was inserted into a plastic box lined with paper tissues soaked in distilled water to prevent leaf sections from drying out. After 96 h incubation in the dark at 25° C., the leaves were removed and chlorophyll extracted by heating at 80° C. for 10 min in 5 ml of 80% ethanol (v/v). The sample volume was then restored to 5 ml by the addition of 80% ethanol (v/v). The absorbance of the extract was recorded at 665 nm. In addition, chlorophyll extracts from fresh leaves and leaf tips incubated in deionised water were measured. […] Relative activity of the compound at this concentration was calculated (Tab. 3). The activity obtained for 10^−4 M 6-benzylaminopurine (BAP) was postulated as 100%. The values shown are means of five replicates and the whole experiment was repeated twice. The tested cytokinin bases were dissolved in dimethylsulfoxide (DMSO) and the solution brought up to 10^−3 M with distilled water. Cytokinin mesylate salts which are more water-soluble (BAP mesylate, meta-topolin mesylate and kinetin mesylate) could be directly dissolved to form a 10^−3 M solution in distilled water.
# rose explants = assay: In vitro and post vitro multiplication and rooting of rose; assay type: in vivo, Rosa multiflora
# Description: The aim of this experiment was to test whether the new compounds are of practical use in tissue culture practice. The multiplication rate was investigated and the post vitro effects on rooting were examined Rosa hybrida (pot rose cultivar) was cultured in 350 ml vessels with a screw on polycarbonate lid. Each culture vessel contained 100 ml autoclaved medium (120° C., 20 min). The cultures were maintained at 23±2° C. under a 16 h photoperiod at 40 μM·m^−2 s^−1 PAR. The basal medium (BMR) contained Murashige and Skoog (1962) macroelements, microelements and vitamins, 95 μM NaFeEDTA, 555 μM myo-inositol, 111 mM sucrose, 1.332 mM glycine, 684 μM L-glutamine and 7 g/l agar. This medium was supplemented with 10 μM BAP, mT, or 3MeOBAP, or the corresponding mesylate salts. The control medium didn't contain any cytokinin After a culture period of 8 weeks, the number of induced shoots per explant was determined, as well as root number/explant and total root length/explant. The roots were removed and the explants (shoot clusters) were planted in unfertilised peat. After four weeks of acclimatising in a fog unit, root number and root length was determined. As expected, a cytokinin free medium yielded almost no new shoots. The original shoot explant grew out as a good quality single shoot that rooted very well. […] Explants growing on cytokininin mesylates were characterized by a high multiplication index (a large number of new shoots) and were more rooted in comparison with free bases. The use of cytokinin mesylates led to an increase in all monitored parameters in plant culture compared to free cytokinin bases.
# [2] = Aqueous solubility: concentration of saturated solution by HPLC; assay type: physicochemical; details: thermodynamic from solid; saturated solution in water, cytokinin mesylate; read-out: c of CK mesylate
# Description: Aqueous solubility was measured using the following protocol. Supersaturated solution of meta-topolin mesylate salt was prepared. The solutions were filtered off from visible undissolved particles of the salt to obtain homogenic saturated solution. Saturated solution was diluted 1:10 000 and measured using HPLC Alliance Waters 2690 with C18 Symmetry column with the diameter 2.1 mm and 150 mm length with a porosity of 5 μm. The sample was dissolved in the mobile phase (MeOH: HCOONH4-1:9). The sample was washed with a methanol gradient (10-90%, 35 min) at pH 4 and a flow rate of 0.3 ml/min. The absorbances of the components were detected in the UV region at 210-400 nm. The peak area of meta-topolin mesylate salt was 595 027. The standard was measured as shown in the Table 9 below, Obtained peak area was compared to area peaks measured at certain concentration and the final concentration of saturated solution was determined
# Solubility of other cytokinin (CK) mesylates was also determined by this method and the concentrations of saturated solutions are given below in Table 10: […]
# [3] = system: cytokinin-dependent tobacco callus; assay: Tobacco callus biotest (stimulation of plant cell division); assay type: cell-based, Nicotiana tabacum L. cv. Wisconsin 38; details: for activity (%) [10^−5 mol · l^−1 BAP = 100%]: callus growth at concentration with highest activity, 10^−5 M BAP = 100%
# Description: Stimulation effect of the cytokinin mesylates was tested in tobacco callus biotest using cytokinin dependent tobacco callus. Cytokinin-dependent tobacco callus Nicotiana tabacum L. cv. […] Subcultivation was carried out every three weeks. Fourteen days before the bioassay, the callus tissue was transferred to the media without BAP. Biological activity was determined from the increase in fresh callus weight after four weeks of cultivation. Five replicates were prepared for each cytokinin concentration and the entire test was repeated twice. […] Relative activity of the compound at this concentration was calculated (Tab. 15). The activity obtained for 10^−5 M 6-benzylaminopurine (BAP) was postulated as 100%. The cytokinin bases to be tested were dissolved in dimethylsulfoxide (DMSO) and the solution brought up to 10^−3 M with distilled water. The mesylate salts were dissolved directly in distilled water.
# [4] = system: CEM (T-lymphoblastic leukemia); assay: In vitro cytotoxicity, Calcein AM assay, CEM; assay type: cell-based; details: 3-day Calcein-AM assay
# From the text: (§1) Because toxic compounds adversely affect cell metabolic processes, many standard cytotoxicity assays are based on measuring the rate of metabolism of various artificial substrates. The resulting product is then quantified, for example, by spectrometry. Assays can be easily modified for use in 96-well plates, A microtiter assay based on the quantification of Calcein AM metabolism was used to evaluate the cytotoxicity of cytokinins, for example meta-topolin, ortho-topolin, kinetin, BAP or its mesylate salts, but also a number of other cytokinin mesylate derivatives according to the invention. The test is widely used in drug screening programs and in chemosensitivity testing. In living cells, Calcein AM is enzymatically hydrolyzed and the accumulation of the resulting calcein is manifested by green fluorescence. […] These cells were maintained in standard DMEM or RPMI medium (Sigma, MO, USA) supplemented with heat-inactivated fetal bovine serum (10%) with 2 mM L-glutamine and penicillin-streptomycin (1%) under standard cell culture conditions (37° C., 5% CO2 in a humid environment) and subcultured two or three times a week using a standard trypsinization procedure. Approximately 10,000 cells in 80 μl of medium were seeded in a 96-well microtiter plate. After 12 hours of incubation, the compounds to be tested were added in 20 μl aliquots. Control cultures were treated with DMSO alone. […] After 72 hours of incubation, Calcein AM solution (Molecular Probes) was added to a final concentration of 1 μg/ml and the cells were incubated for another hour.
# (§2) Cytoxicity of compounds was tested on panel of cell lines of different histogenetic and species origin.
# keratinocytes HaCaT = assay: Cytotoxicity for non-cancer cells, resazurine reduction assay, HaCaT
# Description: (§3) It is used for viability testing of both bacterial and eukaryotic cells. […] Cultivation medium was DMEM with 10% FBS. Before the experiment, the cells were subcultured for 2 weeks. For the cytotoxicity evaluation, the cells were trypsinized and pipetted into 96 well plates (5000 cells per well in 80 microliters). After 24 hours, 5× concentrated solutions of the tested compounds in the medium were added. […] IC50 values were calculated from dose response curves using drc library for R programming environment.
# [5] = system: retinal epitelium cells ARPE-19; assay: Cytotoxicity for non-cancer cells, resazurine reduction assay, ARPE-19
# Description: as §3
# [6] = system: MCF-7 (breast adenocarcinoma); assay: In vitro cytotoxicity, Calcein AM assay, MCF7; assay type: cell-based; details: 3-day Calcein-AM assay
# From the text: as §1, §2
# [7] = system: K562 (chronic myeloid leukemia); assay: In vitro cytotoxicity, Calcein AM assay, K-562; assay type: cell-based; details: 3-day Calcein-AM assay
# From the text: as §1, §2
# skin fibroblasts BJ = assay: Cytotoxicity for non-cancer cells, resazurine reduction assay, BJ
# Description: as §3
# [8] = system: HL-60 (promyelocytic, leukemia); assay: In vitro cytotoxicity, Calcein AM assay, HL60; assay type: cell-based; details: 3-day Calcein-AM assay
# From the text: as §1, §2
# [9] = Ex vitro, after four weeks of acclimatising in peat
# [10] = In vitro, 10 μM cytokinin, 8 weeks
# [11] = resazurin, 72 hour treatment, HaCaT
# [12] = resazurin, 72 hour treatment, ARPE-19
# [13] = resazurin, 72 hour treatment, BJ
Compound,solubility thermodynamic [2] [mM],activity (%) [10^−5 mol · l^−1 BAP = 100%] [3] [%],activity (%) [10^−4 mol · l^−1 BAP = 100%] [1] [%],Cytotoxicity for Fibroblasts (GI20) HaCaT (keratinocytes HaCaT; [11]) [µM],"Cytotoxicity for Fibroblasts (GI20) ARPE-19 [5, 12] [μM]","Cytotoxicity for Fibroblasts (GI20) BJ (skin fibroblasts BJ; human, 72 h) [µM]",pIC50 [4],pIC50 [6],pIC50 [8],Cytotoxicity for Fibroblasts (GI20) BJ (skin fibroblasts BJ; [13]) [µM],other results
"COc1cccc(CNc2ncnc3nc[nH]c23)c1.CS(=O)(=O)O [3MeOBAP mesylate, 6-(3-methoxybenzylamino)purine mesylate]",47.5,83,–,–,–,–,–,–,–,–,"activity (%) [10^−4 mol · l^−1 BAP = 100%] ([1]; listed as 3-MeoBAP mesylate, mesylate): 125%; activity (%) [10^−4 mol · l^−1 BAP = 100%] ([1]; mesylate): 184%; Number of roots per plant (rose explants; [9]): 1.9; Overall length of plant (cm) (rose explants; [9]): 4.5 cm; Number of new shoots per explant (rose explants; [10]): 4.5; Number of roots per explant (rose explants; [10]): 0.0; Overall length of explant (cm) (rose explants; [10]): 0.0 cm; number of flowers per explant (rose explants; [10]): 0.02"
"CS(=O)(=O)O.c1coc(CNc2ncnc3nc[nH]c23)c1 [Kinetin mesylate, 6-furfurylaminopurine mesylate]",92.6,–,110.9,>100,>100,>100,–,–,–,–,"pIC50 ([4]; 72 h): < 3.78; pIC50 ([6]; Homo sapiens, MCF7, 72 h): < 3.78; pIC50 ([7]; Homo sapiens, K562, 72 h): < 3.78"
"CC(C)=CCNc1ncnc2[nH]cnc12.CS(=O)(=O)O [iP mesylate, N-3-(Methylbut-2-En-1-Yl)-9H-Purin-6-Amin Methanesulphonate]",–,95,95,–,–,–,3.89,< 3.78,–,–,"concentration with highest activity ([1]; chlorophyll retention, excised wheat leaf tips, 96 h dark): 10^−4 mol · l^−1; Cytotoxicity for Fibroblasts (GI20) HaCaT (keratinocytes HaCaT): >100 µM; Cytotoxicity for Fibroblasts (GI20) ARPE-19 [5]: >100 μM; pIC50 [7]: 3.79; Cytotoxicity for Fibroblasts (GI20) BJ (skin fibroblasts BJ): 149.3 µM; concentration with highest activity ([3]; tobacco callus fresh weight increase, four weeks): 10^−6 mol · l^−1"
"CS(=O)(=O)O.Oc1ccccc1CNc1ncnc2nc[nH]c12 [oT mesylate, 6-(2-hydroxybenzylamino)purine mesylate]",82.3,87,69,>100,>100,>100,–,–,–,–,pIC50 ([4]; mesylate): 4.05
"C/C(=C\CNc1ncnc2[nH]cnc12)CO.CS(=O)(=O)O [tZ mesylate, (E)-4-(9H-Purin-6-Ylamino)-2-Methybut-2-En-1-ol)Methanesulphonate]",–,111,114,>100,>100,–,< 3.78,< 3.78,< 3.78,>100,–
"C/C(=C\CNc1ncnc2nc[nH]c12)CO [trans-zeatin (tZ), trans-zeatin]",–,109,110,>100,>100,–,< 3.78,< 3.78,< 3.78,>100,–
